# “Also recorded” adds a separate entry of the source.
# Assay: Body weight and toxicity in tumor-bearing NOD/SCID mice
# Format: in vivo
# Details: for Weight (g) Final / Weight (g) Initial: three times a day, 10 days; for Weight (g) Initial: initial (Day 0)
# Method: Animal: NOD/SCID mice (multiple immunodeficiency mice), 8 weeks, female, purchased from Shanghai Laboratory Animal Center of Chinese Academy of Sciences, China.
# BS-HH-002, wherein BS-HH-002-0.1 indicates a dosage of 0.1 mg/kg each time, and BS-HH-002-0.3 indicates a dosage of 0.3 mg/kg each time.
# Under sterile conditions, the above tumor cells in the logarithmic growth phase are collected and injected in an amount of 5×10^7/0.2 ml/mice (cell viability>95%) by subcutaneous injection into the right subaxillary of NOD/SCID mice, thus establishing an NOD/SCID mice model bearing transplanted tumor of leukemia. The mice are administered on the third day after the inoculation, wherein the experimental groups are intragastrically administered in an experimentally designed amount and the negative control group is intragastrically administered with sterile water. Each mouse is intragastrically administered three times a day in 0.4 ml each time, at 8:00, 14:00 and 20:00 with 6-hour intervals, and is successively administered for 10 days. The day before administration is Day 0 and the weight and tumor size are determined approximately every 5 days to produce a dynamic plot on weight and tumor growth. On Day 31, the mice are dissected and the tumors are taken out and weighed. The tumor inhibition rate (%) after the application of medicament is determined based on the tumor inhibition rate of the control group being zero.
# The values determined are presented as mean±standard error (M±SD). The experimental data for each group are analyzed by the One-way ANOVA method of SPSS 18.0 Statistical Software, and p<0.05 is deemed as having statistically significant difference.
smiles,measurement,setting,value
"COC(=O)C[C@](O)(CCCC(C)(C)OC(C)=O)C(=O)O[C@@H]1C(OC)=C[C@]23CCCN2CCc2cc4c(cc2[C@H]13)OCO4 [BS-HH-002, 6-acetylhomoharringtonine]",Weight (g) Final,0.1 mg/kg/time intragastric,26.7 ± 1.92 g
same,Weight (g) Initial,0.1 mg/kg/time intragastric,21.48 ± 0.05 g
same,Weight (g) Final,0.3 mg/kg/time intragastric,27.45 ± 2.48 g
same,Weight (g) Initial,0.3 mg/kg/time intragastric,22.45 ± 0.13 g
same,toxic or side effect,0.1 and 0.3 mg/kg each time,does not have any obvious toxic or side effect; also recorded: does not demonstrate an obvious toxicity
same,impact on animal weight,initial vs final weight,does not have substantial impact on animal weight

# — patent publication US9428519B2, “Acylated derivative of homoharringtonine, preparation method therefor, and application thereof” (HANGZHOU BENSHENG PHARMACEUTICAL CO., LTD., priority 2011, dated 2016)
